Results as given in ChEMBL document CHEMBL1201862, “PubChem BioAssay data set” (2004).
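Exposure lasted 48 hours, with cells grown in 96-well plates and compounds tested at five concentrations. GI50 is the concentration that inhibits growth by half.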 The source made the active and inactive calls. Rule as the data show it: active = GI50 up to about 1.1 µM and inactive = higher.

Tests used:
Assay in all cases: NCI-60 cell line screen, 48 h
[1] = tested on: 786-0
[2] = tested on: ACHN
[3] = tested on: CCRF-CEM
[4] = tested on: LOX IMVI
[5] = tested on: LXFL 529
[6] = tested on: Malme-3M
[7] = tested on: NCI-H226
[8] = tested on: NCI-H23
[9] = tested on: SF-295
[10] = tested on: SK-MEL-5
[11] = tested on: SK-OV-3
[12] = tested on: SN12C
[13] = tested on: SNB-75
[14] = tested on: U-251
[15] = tested on: UACC-62
[16] = tested on: UO-31
[17] = tested on: HOP-62
[18] = tested on: OVCAR-4
[19] = tested on: HCC 2998
[20] = tested on: MDA-N

COC(=O)C(=O)C(C#N)c1ccc(Cl)c(Cl)c1 (centres undefined)
GI50 [1]: > 100 µM (inactive)
GI50 [2]: > 100 µM (inactive)
GI50 [3]: > 100 µM (inactive)
GI50 [4]: > 100 µM (inactive)
GI50 [5]: > 100 µM (inactive)
GI50 [6]: > 100 µM (inactive)
GI50 [7]: > 100 µM (inactive)
GI50 [8]: > 100 µM (inactive)
GI50 [9]: > 100 µM (inactive)
GI50 [10]: > 100 µM (inactive)
GI50 [11]: > 100 µM (inactive)
GI50 [12]: > 100 µM (inactive)
GI50 [13]: 80 µM (inactive)
GI50 [14]: > 100 µM (inactive)
GI50 [15]: > 100 µM (inactive)
GI50 [16]: > 100 µM (inactive)

N#CC1([N+](=O)[O-])C=C1c1ccccc1 (centres undefined)
GI50 [1]: 28.8 µM (inactive)
GI50 [2]: 38.6 µM (inactive)
GI50 [3]: 21.1 µM (inactive)
GI50 [17]: > 100 µM (inactive)
GI50 [4]: 28.6 µM (inactive)
GI50 [5]: 32.1 µM (inactive)
GI50 [6]: 63 µM (inactive)
GI50 [7]: 95.3 µM (inactive)
GI50 [8]: > 100 µM (inactive)
GI50 [18]: > 100 µM (inactive)
GI50 [9]: > 100 µM (inactive)
GI50 [10]: 57.3 µM (inactive)
GI50 [11]: > 100 µM (inactive)
GI50 [12]: > 100 µM (inactive)
GI50 [14]: > 100 µM (inactive)
GI50 [15]: 20.9 µM (inactive)
GI50 [16]: > 100 µM (inactive)

N#Cc1[nH]c(=O)n(-c2ccc([N+](=O)[O-])cc2)c1N
GI50 [1]: > 10 µM (inactive)
GI50 [2]: > 10 µM (inactive)
GI50 [3]: > 10 µM (inactive)
GI50 [19]: > 10 µM (inactive)
GI50 [17]: > 10 µM (inactive)
GI50 [4]: > 10 µM (inactive)
GI50 [20]: > 10 µM (inactive)
GI50 [6]: > 10 µM (inactive)
GI50 [7]: > 10 µM (inactive)
GI50 [8]: > 10 µM (inactive)
GI50 [18]: > 10 µM (inactive)
GI50 [9]: > 10 µM (inactive)
GI50 [10]: > 10 µM (inactive)
GI50 [11]: > 10 µM (inactive)
GI50 [12]: > 10 µM (inactive)
GI50 [13]: > 10 µM (inactive)
GI50 [14]: > 10 µM (inactive)
GI50 [15]: > 10 µM (inactive)
GI50 [16]: > 10 µM (inactive)

N=C(N)SCCCN
GI50 [1]: 4.71 µM (inactive)
GI50 [2]: 4.29 µM (inactive)
GI50 [3]: 1.39 µM (inactive)
GI50 [19]: 0.0455 µM (active)
GI50 [17]: 12.1 µM (inactive)
GI50 [4]: 3.3 µM (inactive)
GI50 [20]: 3.95 µM (inactive)
GI50 [6]: 8.77 µM (inactive)
GI50 [7]: 18.3 µM (inactive)
GI50 [8]: 6.1 µM (inactive)
GI50 [18]: 6.5 µM (inactive)
GI50 [9]: 21.6 µM (inactive)
GI50 [10]: 15 µM (inactive)
GI50 [11]: 22.4 µM (inactive)
GI50 [12]: 25.2 µM (inactive)
GI50 [13]: 33.7 µM (inactive)
GI50 [14]: 6.11 µM (inactive)
GI50 [15]: 17.6 µM (inactive)
GI50 [16]: 17.7 µM (inactive)

CCOC(=O)/C=C/C(Br)=C(Br)/C=C/C(=O)OCC
GI50 [1]: 3.01 µM (inactive)
GI50 [2]: 12.3 µM (inactive)
GI50 [3]: 0.796 µM (active)
GI50 [19]: 20.6 µM (inactive)
GI50 [17]: 17.9 µM (inactive)
GI50 [4]: 2.52 µM (inactive)
GI50 [20]: 10.3 µM (inactive)
GI50 [6]: 3.4 µM (inactive)
GI50 [7]: 29.5 µM (inactive)
GI50 [8]: 14.5 µM (inactive)
GI50 [18]: 17.7 µM (inactive)
GI50 [9]: 14.8 µM (inactive)
GI50 [10]: 12.9 µM (inactive)
GI50 [11]: 20.3 µM (inactive)
GI50 [12]: 7.85 µM (inactive)
GI50 [13]: 12.4 µM (inactive)
GI50 [14]: 14.6 µM (inactive)
GI50 [15]: 15.4 µM (inactive)
GI50 [16]: 10.7 µM (inactive)

O=C1O/C(=C(\Br)c2ccc([N+](=O)[O-])cc2)c2ccccc21
GI50 [1]: > 54.6 µM (inactive)
GI50 [2]: > 100 µM (inactive)
GI50 [3]: 21.4 µM (inactive)
GI50 [19]: > 100 µM (inactive)
GI50 [17]: > 80.9 µM (inactive)
GI50 [4]: 67.8 µM (inactive)
GI50 [20]: > 66.2 µM (inactive)
GI50 [6]: > 49.9 µM (inactive)
GI50 [7]: > 100 µM (inactive)
GI50 [8]: > 100 µM (inactive)
GI50 [18]: > 100 µM (inactive)
GI50 [9]: > 100 µM (inactive)
GI50 [10]: > 75.7 µM (inactive)
GI50 [11]: > 100 µM (inactive)
GI50 [12]: > 100 µM (inactive)
GI50 [13]: > 78.3 µM (inactive)
GI50 [14]: 73.3 µM (inactive)
GI50 [15]: 58.5 µM (inactive)
GI50 [16]: 62.8 µM (inactive)

O=c1oc2ccc([N+](=O)[O-])cc2c(Nc2ccc3c(c2)Sc2ccccc2O3)c1[N+](=O)[O-]
GI50 [1]: 20.3 µM (inactive)
GI50 [2]: 27 µM (inactive)
GI50 [3]: 18.9 µM (inactive)
GI50 [19]: 13.6 µM (inactive)
GI50 [17]: 21.3 µM (inactive)
GI50 [4]: 20 µM (inactive)
GI50 [20]: 28.6 µM (inactive)
GI50 [6]: 30.7 µM (inactive)
GI50 [7]: 18.8 µM (inactive)
GI50 [8]: 18.6 µM (inactive)
GI50 [18]: 32.3 µM (inactive)
GI50 [9]: 38.2 µM (inactive)
GI50 [10]: 20.3 µM (inactive)
GI50 [11]: 24 µM (inactive)
GI50 [12]: 20 µM (inactive)
GI50 [13]: 39.6 µM (inactive)
GI50 [14]: 17.5 µM (inactive)
GI50 [15]: 15 µM (inactive)
GI50 [16]: 22.6 µM (inactive)

NC(=O)c1nnsc1NN=O
GI50 [1]: > 100 µM (inactive)
GI50 [2]: > 100 µM (inactive)
GI50 [3]: > 100 µM (inactive)
GI50 [19]: > 100 µM (inactive)
GI50 [17]: > 100 µM (inactive)
GI50 [4]: > 100 µM (inactive)
GI50 [20]: > 100 µM (inactive)
GI50 [6]: > 100 µM (inactive)
GI50 [7]: > 100 µM (inactive)
GI50 [8]: > 100 µM (inactive)
GI50 [18]: > 100 µM (inactive)
GI50 [9]: > 100 µM (inactive)
GI50 [10]: > 100 µM (inactive)
GI50 [11]: > 100 µM (inactive)
GI50 [12]: > 100 µM (inactive)
GI50 [13]: 94.8 µM (inactive)
GI50 [14]: > 100 µM (inactive)
GI50 [15]: > 100 µM (inactive)
GI50 [16]: > 100 µM (inactive)

CCOC(=O)C1=c2[nH]c3cccc4cccc(c43)n2C(=O)CC1c1ccccc1 (centres undefined)
GI50 [1]: > 100 µM (inactive)
GI50 [2]: > 100 µM (inactive)
GI50 [3]: > 100 µM (inactive)
GI50 [19]: > 100 µM (inactive)
GI50 [17]: > 100 µM (inactive)
GI50 [4]: > 100 µM (inactive)
GI50 [20]: > 100 µM (inactive)
GI50 [6]: > 100 µM (inactive)
GI50 [7]: > 100 µM (inactive)
GI50 [8]: > 100 µM (inactive)
GI50 [18]: > 100 µM (inactive)
GI50 [9]: > 100 µM (inactive)
GI50 [10]: > 100 µM (inactive)
GI50 [11]: > 100 µM (inactive)
GI50 [12]: > 100 µM (inactive)
GI50 [13]: > 100 µM (inactive)
GI50 [14]: > 100 µM (inactive)
GI50 [15]: > 100 µM (inactive)
GI50 [16]: > 100 µM (inactive)

CC1=C(C(=O)OCCc2ccc([N+](=O)[O-])cc2)C(c2ccccc2[N+](=O)[O-])C(C(=O)OC(C)C)=C(C)N1 (centres undefined)
GI50 [1]: 3.08 µM (inactive)
GI50 [2]: 3.4 µM (inactive)
GI50 [3]: 2.36 µM (inactive)
GI50 [19]: 7.43 µM (inactive)
GI50 [17]: 8.67 µM (inactive)
GI50 [4]: 4.14 µM (inactive)
GI50 [20]: 4.51 µM (inactive)
GI50 [6]: 7.19 µM (inactive)
GI50 [7]: 5.45 µM (inactive)
GI50 [8]: 3.97 µM (inactive)
GI50 [18]: 37.9 µM (inactive)
GI50 [9]: 2.74 µM (inactive)
GI50 [10]: 2.24 µM (inactive)
GI50 [11]: 5.81 µM (inactive)
GI50 [12]: 6.87 µM (inactive)
GI50 [13]: 4.24 µM (inactive)
GI50 [14]: 4.73 µM (inactive)
GI50 [15]: 4.29 µM (inactive)
GI50 [16]: 4.2 µM (inactive)

COc1cc2c3c(c4cc(OC)c(OC)cc4c2cc1OC)[C@H](O)[C@@H]1CCCN1C3
GI50 [1]: < 0.0321 µM (active)
GI50 [2]: < 0.0157 µM (active)
GI50 [3]: < 0.0272 µM (active)
GI50 [19]: < 0.0243 µM (active)
GI50 [17]: < 0.0198 µM (active)
GI50 [4]: < 0.0265 µM (active)
GI50 [20]: < 0.0363 µM (active)
GI50 [6]: < 0.0384 µM (active)
GI50 [7]: 0.0494 µM (active)
GI50 [8]: < 0.0344 µM (active)
GI50 [18]: < 0.0234 µM (active)
GI50 [9]: < 0.0222 µM (active)
GI50 [10]: < 0.0259 µM (active)
GI50 [11]: < 0.0237 µM (active)
GI50 [12]: < 0.0303 µM (active)
GI50 [13]: < 0.0312 µM (active)
GI50 [14]: < 0.0245 µM (active)
GI50 [15]: < 0.0337 µM (active)
GI50 [16]: < 0.0337 µM (active)
